Laboratory results taken from patent US8999970B2, “Administration of an anti-obesity compound to individuals with renal impairment” (Arena Pharmaceuticals, Inc., priority 2010, dated 2015).
Several values for one entry are separate records, joined by “and”; a condition that tells them apart may be missing. Identical values can stand only once.

Assay: Clinical trial APD356-016: plasma and urine pharmacokinetics of lorcaserin, M1 and M5 after a 10 mg dose in subjects with renal impairment
Conditions: Severe Renal Impairment Not Receiving Dialysis; for Plasma Concentration of HSO3-APD356 Metabolite, Max: group Max; for Plasma Concentration of HSO3-APD356 Metabolite, Max / Plasma Concentration of HSO3-APD356 Metabolite, Mean / Plasma Concentration of HSO3-APD356 Metabolite, Median / Plasma Concentration of HSO3-APD356 Metabolite, Min: N 8; for Plasma Concentration of HSO3-APD356 Metabolite, Mean: group Mean; for Plasma Concentration of HSO3-APD356 Metabolite, Median: group Median; for Plasma Concentration of HSO3-APD356 Metabolite, Min: group Min; for Plasma Concentration of HSO3-APD356 Metabolite: individual subject
Protocol: The interaction of renal insufficiency with the pharmacokinetics, tolerability and safety of lorcaserin were evaluated in a formal PK study in subjects with renal impairment and in the populations studied in phase 2 and phase 3 clinical studies.
The pharmacokinetic properties of lorcaserin in subjects with varying degrees of renal impairment were evaluated in clinical trial APD356-016. At the time of study conduct and analysis, subjects were assigned to renal impairment groups based on creatinine clearance calculated using IDEAL body weight (Table 1). This calculation was used to avoid overestimation of creatinine clearance due to the excess body weight (overweight and obese subjects were enrolled in the trial). Summaries of pharmacokinetic properties by group assignment using creatinine clearance calculated using ACTUAL body weights are also provided in the sections that follow.
The FDA expects a reasonable margin between anticipated exposures and exposures that may produce toxicity. A reasonable margin can vary depending on the expected toxicity, but generally is an order of magnitude (10 times), but can sometimes be less for mild toxicity.
Table 13. Summary of Plasma Concentrations (ng/mL) of HSO3-APD356 Metabolite over Time by Group: Severe Renal Impairment Not Receiving Dialysis (see Table 13 next page)
Subject number 3140-505 was on dialysis and grouped in the end stage renal disease group.

Structure (SMILES): C[C@H]1CN(S(=O)(=O)O)CCc2ccc(Cl)cc21 [HSO3-APD356 Metabolite]
- Plasma Concentration of HSO3-APD356 Metabolite, Max (Day 1 0.5 h): 182 ng/mL
- Plasma Concentration of HSO3-APD356 Metabolite, Max (Day 1 1 h): 319 ng/mL
- Plasma Concentration of HSO3-APD356 Metabolite, Max (Day 1 2 h): 489 ng/mL
- Plasma Concentration of HSO3-APD356 Metabolite, Max (Day 1 3 h): 468 ng/mL
- Plasma Concentration of HSO3-APD356 Metabolite, Max (Day 1 4 h): 542 ng/mL
- Plasma Concentration of HSO3-APD356 Metabolite, Max (Day 1 6 h): 445 ng/mL
- Plasma Concentration of HSO3-APD356 Metabolite, Max (Day 1 8 h): 473 ng/mL
- Plasma Concentration of HSO3-APD356 Metabolite, Max (Day 1 12 h): 439 ng/mL
- Plasma Concentration of HSO3-APD356 Metabolite, Max (Day 1 16 h): 410 ng/mL
- Plasma Concentration of HSO3-APD356 Metabolite, Max (Day 1 Predose): 9.00 ng/mL
- Plasma Concentration of HSO3-APD356 Metabolite, Max (Day 2 24 h): 406 ng/mL
- Plasma Concentration of HSO3-APD356 Metabolite, Max (Day 2 36 h): 336 ng/mL
- Plasma Concentration of HSO3-APD356 Metabolite, Max (Day 3 48 h): 292 ng/mL
- Plasma Concentration of HSO3-APD356 Metabolite, Max (Day 4 72 h): 248 ng/mL
- Plasma Concentration of HSO3-APD356 Metabolite, Max (Day 5 96 h): 225 ng/mL
- Plasma Concentration of HSO3-APD356 Metabolite, Max (Day 6 120 h): 212 ng/mL
- Plasma Concentration of HSO3-APD356 Metabolite, Mean (Day 1 0.5 h): 25.7 ng/mL
- Plasma Concentration of HSO3-APD356 Metabolite, Mean (Day 1 1 h): 50.6 ng/mL
- Plasma Concentration of HSO3-APD356 Metabolite, Mean (Day 1 2 h): 83.2 ng/mL
- Plasma Concentration of HSO3-APD356 Metabolite, Mean (Day 1 3 h): 86.8 ng/mL
- Plasma Concentration of HSO3-APD356 Metabolite, Mean (Day 1 4 h): 99.5 ng/mL
- Plasma Concentration of HSO3-APD356 Metabolite, Mean (Day 1 6 h): 86.7 ng/mL
- Plasma Concentration of HSO3-APD356 Metabolite, Mean (Day 1 8 h): 88.9 ng/mL
- Plasma Concentration of HSO3-APD356 Metabolite, Mean (Day 1 12 h): 84.3 ng/mL
- Plasma Concentration of HSO3-APD356 Metabolite, Mean (Day 1 16 h): 76.8 ng/mL
- Plasma Concentration of HSO3-APD356 Metabolite, Mean (Day 1 Predose): 1.13 ng/mL
- Plasma Concentration of HSO3-APD356 Metabolite, Mean (Day 2 24 h): 84.4 ng/mL
- Plasma Concentration of HSO3-APD356 Metabolite, Mean (Day 2 36 h): 73.9 ng/mL
- Plasma Concentration of HSO3-APD356 Metabolite, Mean (Day 3 48 h): 68.1 ng/mL
- Plasma Concentration of HSO3-APD356 Metabolite, Mean (Day 4 72 h): 58.3 ng/mL
- Plasma Concentration of HSO3-APD356 Metabolite, Mean (Day 5 96 h): 53.8 ng/mL
- Plasma Concentration of HSO3-APD356 Metabolite, Mean (Day 6 120 h): 49.2 ng/mL
- Plasma Concentration of HSO3-APD356 Metabolite, Median (Day 1 0.5 h): 1.33 ng/mL
- Plasma Concentration of HSO3-APD356 Metabolite, Median (Day 1 1 h): 12.6 ng/mL
- Plasma Concentration of HSO3-APD356 Metabolite, Median (Day 1 2 h): 24.5 ng/mL
- Plasma Concentration of HSO3-APD356 Metabolite, Median (Day 1 3 h): 27.5 ng/mL
- Plasma Concentration of HSO3-APD356 Metabolite, Median (Day 1 4 h): 31.6 ng/mL
- Plasma Concentration of HSO3-APD356 Metabolite, Median (Day 1 6 h): 32.8 ng/mL
- Plasma Concentration of HSO3-APD356 Metabolite, Median (Day 1 8 h): 29.5 ng/mL
- Plasma Concentration of HSO3-APD356 Metabolite, Median (Day 1 12 h): 28.9 ng/mL
- Plasma Concentration of HSO3-APD356 Metabolite, Median (Day 1 16 h): 28.1 ng/mL
- Plasma Concentration of HSO3-APD356 Metabolite, Median (Day 1 Predose): 0.00 ng/mL
- Plasma Concentration of HSO3-APD356 Metabolite, Median (Day 2 24 h): 32.5 ng/mL
- Plasma Concentration of HSO3-APD356 Metabolite, Median (Day 2 36 h): 35.5 ng/mL
- Plasma Concentration of HSO3-APD356 Metabolite, Median (Day 3 48 h): 33.8 ng/mL
- Plasma Concentration of HSO3-APD356 Metabolite, Median (Day 4 72 h): 31.6 ng/mL
- Plasma Concentration of HSO3-APD356 Metabolite, Median (Day 5 96 h): 31.3 ng/mL
- Plasma Concentration of HSO3-APD356 Metabolite, Median (Day 6 120 h): 27.5 ng/mL
- Plasma Concentration of HSO3-APD356 Metabolite, Min (Day 1 0.5 h): 0.00 ng/mL
- Plasma Concentration of HSO3-APD356 Metabolite, Min (Day 1 1 h): 0.00 ng/mL
- Plasma Concentration of HSO3-APD356 Metabolite, Min (Day 1 2 h): 6.08 ng/mL
- Plasma Concentration of HSO3-APD356 Metabolite, Min (Day 1 3 h): 17.6 ng/mL
- Plasma Concentration of HSO3-APD356 Metabolite, Min (Day 1 4 h): 25.4 ng/mL
- Plasma Concentration of HSO3-APD356 Metabolite, Min (Day 1 6 h): 26.1 ng/mL
- Plasma Concentration of HSO3-APD356 Metabolite, Min (Day 1 8 h): 25.8 ng/mL
- Plasma Concentration of HSO3-APD356 Metabolite, Min (Day 1 12 h): 25.4 ng/mL
- Plasma Concentration of HSO3-APD356 Metabolite, Min (Day 1 16 h): 18.0 ng/mL
- Plasma Concentration of HSO3-APD356 Metabolite, Min (Day 1 Predose): 0.00 ng/mL
- Plasma Concentration of HSO3-APD356 Metabolite, Min (Day 2 24 h): 27.1 ng/mL
- Plasma Concentration of HSO3-APD356 Metabolite, Min (Day 2 36 h): 27.8 ng/mL
- Plasma Concentration of HSO3-APD356 Metabolite, Min (Day 3 48 h): 25.8 ng/mL
- Plasma Concentration of HSO3-APD356 Metabolite, Min (Day 4 72 h): 19.7 ng/mL
- Plasma Concentration of HSO3-APD356 Metabolite, Min (Day 5 96 h): 15.1 ng/mL
- Plasma Concentration of HSO3-APD356 Metabolite, Min (Day 6 120 h): 12.3 ng/mL
- Plasma Concentration of HSO3-APD356 Metabolite (Day 1 0.5 h): 182 ng/mL and 2.66 ng/mL and 8.54 ng/mL and 0.00 ng/mL (2×) and 12.2 ng/mL
- Plasma Concentration of HSO3-APD356 Metabolite (Day 1 1 h): 319 ng/mL and 22.8 ng/mL and 18.0 ng/mL and 0.00 ng/mL and 31.4 ng/mL and 4.30 ng/mL
- Plasma Concentration of HSO3-APD356 Metabolite (Day 1 2 h): 489 ng/mL and 42.2 ng/mL and 25.1 ng/mL and 6.08 ng/mL and 53.2 ng/mL and 13.3 ng/mL
- Plasma Concentration of HSO3-APD356 Metabolite (Day 1 3 h): 468 ng/mL and 52.4 ng/mL and 26.5 ng/mL and 17.6 ng/mL and 55.6 ng/mL and 20.9 ng/mL
- Plasma Concentration of HSO3-APD356 Metabolite (Day 1 4 h): 542 ng/mL and 53.3 ng/mL and 28.2 ng/mL and 28.6 ng/mL and 55.1 ng/mL and 25.4 ng/mL
- Plasma Concentration of HSO3-APD356 Metabolite (Day 1 6 h): 445 ng/mL and 51.9 ng/mL and 32.2 ng/mL and 29.8 ng/mL and 46.5 ng/mL and 26.1 ng/mL
- Plasma Concentration of HSO3-APD356 Metabolite (Day 1 8 h): 473 ng/mL and 49.7 ng/mL and 27.8 ng/mL and 29.2 ng/mL and 50.4 ng/mL and 25.8 ng/mL
- Plasma Concentration of HSO3-APD356 Metabolite (Day 1 12 h): 439 ng/mL and 45.9 ng/mL and 27.2 ng/mL and 27.3 ng/mL and 52.2 ng/mL and 25.4 ng/mL
- Plasma Concentration of HSO3-APD356 Metabolite (Day 1 16 h): 410 ng/mL and 46.9 ng/mL and 28.1 ng/mL and 27.5 ng/mL and 18.0 ng/mL and 28.0 ng/mL and 30.6 ng/mL
- Plasma Concentration of HSO3-APD356 Metabolite (Day 1 Predose): 0.00 ng/mL (6×) and 9.00 ng/mL
- Plasma Concentration of HSO3-APD356 Metabolite (Day 2 24 h): 406 ng/mL and 51.1 ng/mL and 33.0 ng/mL and 31.9 ng/mL and 62.4 ng/mL and 31.6 ng/mL and 32.0 ng/mL
- Plasma Concentration of HSO3-APD356 Metabolite (Day 2 36 h): 336 ng/mL and 45.5 ng/mL and 40.4 ng/mL and 30.6 ng/mL (2×) and 52.2 ng/mL and 28.4 ng/mL
- Plasma Concentration of HSO3-APD356 Metabolite (Day 3 48 h): 292 ng/mL and 47.2 ng/mL and 34.3 ng/mL and 31.0 ng/mL and 54.2 ng/mL and 33.3 ng/mL
- Plasma Concentration of HSO3-APD356 Metabolite (Day 4 72 h): 248 ng/mL and 40.2 ng/mL and 33.0 ng/mL and 27.9 ng/mL and 46.2 ng/mL and 30.2 ng/mL
- Plasma Concentration of HSO3-APD356 Metabolite (Day 5 96 h): 225 ng/mL and 36.0 ng/mL and 30.2 ng/mL and 28.5 ng/mL and 43.8 ng/mL and 32.3 ng/mL
- Plasma Concentration of HSO3-APD356 Metabolite (Day 6 120 h): 212 ng/mL and 30.4 ng/mL and 26.3 ng/mL and 25.2 ng/mL and 40.1 ng/mL and 28.6 ng/mL
